According to ChEMBL document CHEMBL5360672, “Identification of Novel Dual-Target Estrogen Receptor α Degraders with Tubulin Inhibitory Activity for the Treatment of Endocrine-Resistant Breast Cancer” (J Med Chem, 2023):
Activity calls are given as the source filed them. The calls are words filed in the database; no cut-off is given here.

How the values were obtained:
[1] = biological target: T1, Estrogen receptor (Homo sapiens) (UniProt P03372); test: Induction of ERalpha degradation in human MCF7 cells at 5 uM incubated for 24 hrs by Western blot analysis relative to SeCN-OBHSA derivatives; type: cell-based
T1 sequence (whole entry): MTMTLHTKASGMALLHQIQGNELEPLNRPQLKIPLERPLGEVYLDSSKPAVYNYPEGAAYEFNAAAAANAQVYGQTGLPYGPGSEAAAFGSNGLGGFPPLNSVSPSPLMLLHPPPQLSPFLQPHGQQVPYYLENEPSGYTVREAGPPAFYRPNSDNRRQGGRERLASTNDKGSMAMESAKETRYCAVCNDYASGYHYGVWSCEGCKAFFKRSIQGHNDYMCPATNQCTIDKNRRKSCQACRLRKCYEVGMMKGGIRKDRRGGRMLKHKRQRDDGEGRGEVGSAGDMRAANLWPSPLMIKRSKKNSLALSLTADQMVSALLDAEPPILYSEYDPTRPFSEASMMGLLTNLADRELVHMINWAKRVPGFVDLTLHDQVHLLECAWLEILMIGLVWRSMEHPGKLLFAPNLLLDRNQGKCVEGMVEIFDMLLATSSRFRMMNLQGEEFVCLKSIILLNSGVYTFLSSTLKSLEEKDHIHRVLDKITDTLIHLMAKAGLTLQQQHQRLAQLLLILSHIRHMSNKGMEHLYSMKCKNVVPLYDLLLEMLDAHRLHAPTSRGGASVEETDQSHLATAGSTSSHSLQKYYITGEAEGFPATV

MCF7 = test: Antiproliferative activity against ERalpha positive human MCF7 cells assessed as inhibition of cell proliferation incubated for 72 hrs by CCK8 assay; type: functional, cell-based; details: MCF7, 72 h
[2] = Antiproliferative activity against human Tamoxifen-resistant LCC2 cells assessed as inhibition of cell proliferation incubated for 72 hrs by CCK8 assay; type: functional, cell-based
[3] = biological target: T1, Estrogen receptor (Homo sapiens); test: Binding affinity to human ERalpha assessed as relative binding affinity incubated under vibration for 1 min followed by 2 hrs incubation under dark condition by fluorescence polarization assay relative to estradiol; details: time 121.0 min
[4] = Selectivity index, ratio of IC50 for cytotoxicity against human MCF-10A cells to IC50 for antiproliferative activity against human MCF7 cells; type: toxicity, cell-based; details: MCF-10A cells and MCF7 cells, read-out: Ratio IC50
T47D [5] = test: Antiproliferative activity against ERalpha positive human T47D cells assessed as inhibition of cell proliferation incubated for 72 hrs by CCK8 assay; type: functional, cell-based
T47D [6] = test: Antiproliferative activity against human T47D cells harboring ERalpha Y537S mutant assessed as inhibition of cell proliferation incubated for 72 hrs by CCK8 assay; type: functional, cell-based
T47D [7] = test: Antiproliferative activity against human T47D cells harboring ERalpha D538G mutant assessed as inhibition of cell proliferation incubated for 72 hrs by CCK8 assay; type: functional, cell-based
Homo sapiens = species on record: Homo sapiens; test: Selectivity ratio of relative binding affinity for human ERalpha to relative binding affinity to human ERbeta
[8] = Cytotoxicity against human MCF-10A cells assessed as inhibition of cell proliferation incubated for 72 hrs by CCK8 assay; type: toxicity, cell-based
[9] = biological target: Estrogen receptor beta (Homo sapiens) (UniProt Q92731); test: Binding affinity to human ERbeta assessed as relative binding affinity incubated under vibration for 1 min followed by 2 hrs incubation under dark condition by fluorescence polarization assay relative to estradiol; details: time 121.0 min
Sequence of Estrogen receptor beta (Homo sapiens) (Q92731 whole entry): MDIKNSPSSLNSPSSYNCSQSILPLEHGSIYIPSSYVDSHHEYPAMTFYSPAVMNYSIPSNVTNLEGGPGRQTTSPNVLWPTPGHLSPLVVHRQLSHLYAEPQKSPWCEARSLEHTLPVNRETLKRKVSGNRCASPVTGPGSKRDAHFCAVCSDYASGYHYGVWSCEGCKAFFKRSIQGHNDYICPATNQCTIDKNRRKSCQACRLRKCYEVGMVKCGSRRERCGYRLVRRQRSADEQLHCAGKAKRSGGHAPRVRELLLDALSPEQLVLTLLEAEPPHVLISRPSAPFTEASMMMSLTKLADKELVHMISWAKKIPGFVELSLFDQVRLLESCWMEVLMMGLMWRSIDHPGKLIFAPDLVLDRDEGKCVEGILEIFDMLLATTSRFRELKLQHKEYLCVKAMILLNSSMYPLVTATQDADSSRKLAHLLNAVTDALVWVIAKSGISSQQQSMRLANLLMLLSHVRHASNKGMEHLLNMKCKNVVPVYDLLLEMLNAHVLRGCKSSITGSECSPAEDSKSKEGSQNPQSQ

Row | SMILES | Activity [1] | IC50 (MCF7) | RBA [3] | IC50 (T47D [5]) | IC50 (T47D [6]) | IC50 (T47D [7]) | Selectivity ratio (Homo sapiens) | RBA [9] | IC50 [2] | selectivity ratio [4] | IC50 at 72 h [8]
1 | CCN(c1ccc(Cl)cc1)S(=O)(=O)C1CC2OC1C(c1ccc(NC(=O)CCCCC[Se]C#N)cc1)=C2c1ccc(O)cc1 (centres undefined) | Active | 0.44 µM | 2.31% | 5.66 µM | 4.51 µM | 6.76 µM | 38.5 | 0.06% | 4 µM | 66.3 | 29.2 µM
2 | N#C[Se]CCCCCC(=O)Nc1ccc(C2=C(c3ccc(O)cc3)C3CC(S(=O)(=O)N(CC(F)(F)F)c4ccccc4)C2O3)cc1 (centres undefined) | Active | 1.89 µM | 0.39% | 27.7 µM | 18.9 µM | 17.4 µM | 13 | 0.03% | 20.2 µM | 30.5 | 57.6 µM
3 | N#C[Se]CCCCCC(=O)Nc1ccc(C2=C(c3ccc(O)cc3)C3CC(S(=O)(=O)N(CC(F)(F)F)c4ccc(F)cc4)C2O3)cc1 (centres undefined) | Active | 0.17 µM | 7.18% | 5.82 µM | 2.7 µM | 2.71 µM | 18.9 | 0.38% | 4.48 µM | 71.9 | 12.2 µM
4 | CCN(c1cccc(F)c1)S(=O)(=O)C1CC2OC1C(c1ccc(NC(=O)CCCCC[Se]C#N)cc1)=C2c1ccc(O)cc1 (centres undefined) | Active | 0.36 µM | 0.79% | 3.39 µM | 2.39 µM | 2.37 µM | 26.3 | 0.03% | 2.51 µM | 30.6 | 11 µM
5 | COc1cccc(N(CC(F)(F)F)S(=O)(=O)C2CC3OC2C(c2ccc(NC(=O)CCCCC[Se]C#N)cc2)=C3c2ccc(O)cc2)c1 (centres undefined) | Active | 0.47 µM | 1.44% | 9.62 µM | 4.58 µM | 5.16 µM | 11.1 | 0.13% | 6.73 µM | 57.1 | 26.9 µM
6 | CCN(c1ccc(OC)cc1)S(=O)(=O)C1CC2OC1C(c1ccc(NC(=O)CCC[Se]C#N)cc1)=C2c1ccc(O)cc1 (centres undefined) | Active | 1.63 µM | 1.07% | 7.44 µM | 6.69 µM | 8.97 µM | 6.29 | 0.17% | 17.4 µM | > 61.4 | > 100 µM
7 | COc1ccc(N(CC(F)(F)F)S(=O)(=O)C2CC3OC2C(c2ccc(NC(=O)CCC[Se]C#N)cc2)=C3c2ccc(O)cc2)cc1 (centres undefined) | Active | 2.95 µM | 0.46% | 19.9 µM | 11.7 µM | 17.2 µM | 1.21 | 0.38% | 10.1 µM | > 33.9 | > 100 µM
8 | CCN(c1cccc(OC)c1)S(=O)(=O)C1CC2OC1C(c1ccc(NC(=O)CCCCC[Se]C#N)cc1)=C2c1ccc(O)cc1 (centres undefined) | Active | 2.81 µM | 0.51% | 14.2 µM | 9.25 µM | 19.8 µM | 2.55 | 0.2% | 13.3 µM | 32.5 | 91.5 µM

Continued by falling IC50 (MCF7), values first:

Row | Activity [1] | IC50 (MCF7) | RBA [3] | IC50 (T47D [5]) | IC50 (T47D [6]) | IC50 (T47D [7]) | Selectivity ratio (Homo sapiens) | RBA [9] | SMILES | IC50 [2] | selectivity ratio [4] | IC50 at 72 h [8]
9 | Active | 1.09 µM | 4.4% | 4.26 µM | 3.76 µM | 3.42 µM | 73.3 | 0.06% | N#C[Se]CCCCCC(=O)Nc1ccc(C2=C(c3ccc(O)cc3)C3CC(S(=O)(=O)N(CC(F)(F)F)c4cccc(Cl)c4)C2O3)cc1 (centres undefined) | 3.96 µM | 45 | 49.1 µM
10 | Active | 0.66 µM | 2.61% | 18 µM | 7.01 µM | 7.35 µM | 26.1 | 0.1% | CCN(c1ccc(OC)cc1)S(=O)(=O)C1CC2OC1C(c1ccc(NC(=O)CCCCCCC[Se]C#N)cc1)=C2c1ccc(O)cc1 (centres undefined) | 13.4 µM | 45.1 | 29.8 µM
11 | Active | 0.44 µM | 0.76% | 20.2 µM | 6.27 µM | 12.7 µM | 8.44 | 0.09% | COc1ccc(N(CC(F)(F)F)S(=O)(=O)C2CC3OC2C(c2ccc(NC(=O)CCCCCCC[Se]C#N)cc2)=C3c2ccc(O)cc2)cc1 (centres undefined) | 10.3 µM | 86.8 | 38.2 µM
12 | Active | 0.42 µM | 2.82% | 3.93 µM | 3.69 µM | 5.52 µM | 94 | 0.03% | CCN(c1ccccc1OC)S(=O)(=O)C1CC2OC1C(c1ccc(NC(=O)CCCCC[Se]C#N)cc1)=C2c1ccc(O)cc1 (centres undefined) | 6.56 µM | 37.9 | 15.9 µM
13 | Active | 0.33 µM | 7.3% | 6.66 µM | 4.92 µM | 4.76 µM | 730 | 0.01% | CCN(c1ccc(OC)cc1)S(=O)(=O)C1CC2OC1C(c1ccc(NC(=O)CCCCC[Se]C#N)cc1)=C2c1ccc(O)cc1 (centres undefined) | 5.8 µM | 115 | 37.9 µM
14 | Active | 0.31 µM | 4.64% | 2.87 µM | 3.38 µM | 2.86 µM | 46.4 | 0.1% | N#C[Se]CCCCCC(=O)Nc1ccc(C2=C(c3ccc(O)cc3)C3CC(S(=O)(=O)N(CC(F)(F)F)c4cccc(F)c4)C2O3)cc1 (centres undefined) | 1.97 µM | 15.3 | 4.74 µM
15 | Active | 0.28 µM | 5.56% | 3.83 µM | 3.03 µM | 1.91 µM | 61.8 | 0.09% | CCN(c1cccc(Cl)c1)S(=O)(=O)C1CC2OC1C(c1ccc(NC(=O)CCCCC[Se]C#N)cc1)=C2c1ccc(O)cc1 (centres undefined) | 2.61 µM | 33 | 9.23 µM
16 | Active | 0.25 µM | 7.52% | 13.6 µM | 4.4 µM | 5.11 µM | 752 | 0.01% | N#C[Se]CCCCCC(=O)Nc1ccc(C2=C(c3ccc(O)cc3)C3CC(S(=O)(=O)N(CC(F)(F)F)c4ccc(Cl)cc4)C2O3)cc1 (centres undefined) | 6.69 µM | 130 | 32.4 µM
17 | Active | 0.25 µM | 11.2% | 3.84 µM | 2.74 µM | 2.43 µM | 159 | 0.07% | CCN(c1ccc(F)cc1)S(=O)(=O)C1CC2OC1C(c1ccc(NC(=O)CCCCC[Se]C#N)cc1)=C2c1ccc(O)cc1 (centres undefined) | 2.64 µM | 72.2 | 18.1 µM
18 | Active | 0.25 µM | 2.31% | 5.3 µM | 3.06 µM | 3.96 µM | 46.2 | 0.05% | COc1ccc(N(CC(F)(F)F)S(=O)(=O)C2CC3OC2C(c2ccc(NC(=O)CCCCC[Se]C#N)cc2)=C3c2ccc(O)cc2)cc1 (centres undefined) | 3.73 µM | 147 | 36.7 µM
19 | Active | 0.16 µM | 2.69% | 3.11 µM | 2.18 µM | 2.37 µM | 29.9 | 0.09% | CCN(c1ccccc1Cl)S(=O)(=O)C1CC2OC1C(c1ccc(NC(=O)CCCCC[Se]C#N)cc1)=C2c1ccc(O)cc1 (centres undefined) | 2.17 µM | 108 | 17.3 µM
